From US8748370B2, “Peptide derivatives for treatment, prevention or alleviation of a condition associated with bone loss or low bone density or to inhibit osteoclast differentiation and stimulation” (Strongbone AB, priority 2009, dated 2014)
Square brackets hold non-standard residues; d marks the D form. Peptide text beside a SMILES is read from it. * marks the point of attachment. Agmatine = N=C(N)NCCCCN*; Cbz = O=C(OCc1ccccc1)*; azaGly = NNC(=O)O; BrAc = O=C(CBr)*; ClAc = O=C(CCl)*

T1: Papain (Carica papaya, UniProt P00784)
T1 sequence (P00784 134-345): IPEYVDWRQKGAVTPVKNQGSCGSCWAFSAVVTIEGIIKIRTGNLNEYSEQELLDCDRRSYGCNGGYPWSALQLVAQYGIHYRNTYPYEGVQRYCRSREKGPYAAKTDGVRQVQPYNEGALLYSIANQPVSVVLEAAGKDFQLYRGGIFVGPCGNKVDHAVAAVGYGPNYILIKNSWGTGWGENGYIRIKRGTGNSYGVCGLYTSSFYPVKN

T2: Cath K (Homo sapiens, UniProt P43235)
T2 sequence (P43235 115-329): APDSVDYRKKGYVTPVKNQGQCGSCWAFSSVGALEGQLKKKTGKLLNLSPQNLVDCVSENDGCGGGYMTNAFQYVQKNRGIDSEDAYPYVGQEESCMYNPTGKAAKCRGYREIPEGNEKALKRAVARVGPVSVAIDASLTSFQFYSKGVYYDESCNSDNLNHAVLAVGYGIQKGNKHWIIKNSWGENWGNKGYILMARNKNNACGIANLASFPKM

B1: PTH (protein, UniProt P01270 32-115, looked up)
Parathyroid hormone: SVSEIQLMHNLGKHLNSMERVEWLRKKLQDVHNFVALGAPLAPRDAGSQRPRKKEDNVLVESHEKSLGEADKADVNVLTKAKSQ
modifications: Parathyroid hormone
notes: PTH, used to show the lack of stromal cells in the cultures
B2: osteoprotegerin (protein, UniProt O00300 22-401, looked up)
Tumor necrosis factor …: ETFPPKYLHYDEETSHQLLCDKCPPGTYLKQHCTAKWKTVCAPCPDHYYTDSWHTSDECLYCSPVCKELQYVKQECNRTHNRVCECKEGRYLEIEFCLKHRSCPPGFGVVQAGTPERNTVCKRCPDGFFSNETSSKAPCRKHTNCSVFGLLLTQKGNATHDNICSGNSESTQKCGIDVTLCEEAFFRFAVPTKFTPNWLSVLVDNLPGTKVNAESVERIKRQHSSQEQTFQLLKLWKHQNKDQDIVKKIIQDIDLCENSVQRHIGHANLTFEQLRSLMESLPGKKVGAEDIEKTIKACKPSDQILKLLSLWRIKNGDQDTLKGLMHALKHSKTYHFPKTVTQSLKKTIRFLHSFTMYKLYQKLFLEMIGNQVQSVKISCL
notes: osteoprotegerin (OPG), abolishes M-CSF/RANKL-stimulated osteoclast formation
B3: Cystatin C (protein, UniProt P01034 27-146, looked up)
Cystatin-C: SSPGKPPRLVGGPMDASVEEEGVRRALDFAVGEYNKASNDMYHSRALQVVRARKQIVAGVNYFLDVELGRTTCTKTQPNLDNCPFHDQPHLKRKAFCSFQIYAVPWQGTMTLSKSTCQDA

What was measured:
Papain = molecular target: T1, Papain; test: Papain inhibition (Ki); format: biochemical
[1] = system: purified bone marrow macrophages; test: Osteoclast formation in bone marrow macrophage cultures stimulated with M-CSF and RANKL (TRAP+ multinucleated osteoclasts); format: cell-based; settings: for Osteoclast formation (100% = M-CSF + RANKL): purified bone marrow macrophages stimulated with M-CSF and RANKL, trap+ multinucleated osteoclasts
Method: Highly purified BMMs were isolated according to Takeshita et al. (2000).
For osteoclastogenesis experiments, BMMs were seeded either on 0.8 cm^2 glass chamber slides or 0.32 cm^2 96-well plates at a density of 10^4 cells/cm^2 in a-MEM/10% FBS containing either 100 ng/ml M-CSF (controls) or 100 ng/ml M-CSF C50 ng/ml RANKL, with and without test compounds. After 4-5 days, with a change of medium after 3 days, the cultures were harvested and the cells fixed with acetone in citrate buffer/3% formaldehyde and subsequently stained for TRAP. The TRAP-positive cells with three or more nuclei were considered osteoclasts, and the number of multinucleated osteoclasts was counted (TRAP^+-MuOCL). […] Osteoclast formation caused by M-CSF and RANKL was abolished by OPG

Cath K = molecular target: T2, Cath K; test: Cathepsin K inhibition (Ki); format: biochemical
Cath B = Cath B (Homo sapiens, UniProt P07858); test: Cathepsin B inhibition (Ki); format: biochemical
spleen cells = test: Osteoclast formation in spleen cell cultures (TRAP+ multinucleated osteoclasts); format: cell-based, mice; settings: for Osteoclast formation in the presence of the substance: without M-CSF/RANKL stimulation
Method: Cells were obtained from spleens of 5- to 9-week-old mice. The spleens were dissected free of adhering tissues, and cells were released by rubbing the spleens against the bottom of a Petri dish, in which grooves had been made by a scalpel. Erythrocytes were lysed in red blood cell lysis buffer (0.16 MNH4Cl, 0.17 M Tris, pH7.65) and the remaining cells were seeded, at a cell density of 10^6 cells/cm2, on plastic coverslips placed in 24-well plates. The cells were cultured in 0.5 ml a-minimal essential medium (a-MEM) supplemented with 10% fetal bovine serum (FBS), L-glutamine (0.7 mM), 100 U/ml benzylpenicillin, […] and 100 […] sulphate. Cells were allowed to settle overnight in complete medium and thereafter the medium was changed and the experiment started. Osteoclast precursor cells were induced to proliferate and differentiate by the addition of M-CSF (25 ng/ml) and RANKL (100 ng/ml). To study the effect of the compounds on osteoclastogenesis, cells were grown in medium containing compounds at different concentrations, together with M-CSF and RANKL. Cells cultured in complete medium without M-CSF and RANKL were included in all experiments as a control. Medium was changed after 3 days. After 1-6 days, the cells were washed three times with PBS (pH 7.35) and fixed with acetone in citrate buffer/3% formaldehyde solution. Cells were then stained for tartrate-resistant acid phosphatase (TRAP) activity using the SigmaDiagnostics Acid Phosphatase Leukocyte staining kit and by following the manufacturer's instruction. Multinucleated (no. of nuclei >3), TRAP-positive cells were counted as osteoclasts (TRAPC-MuOCL).

Row | Molecule | Ki (Papain) [nM] | Osteoclast formation (100% = M-CSF + RANKL) ([1]; BMM #27 + #29 + #30 + #34) [%] | Ki (Cath K) [nM] | Ki (Cath B) [nM] | further results
1 | CC(C)C[C@H](NC(=O)[C@@H](NC(=O)[C@H](Br)Cc1ccccc1)C(C)C)C(=O)NCCCCNC(=N)N [A-16, BrPpr-Val-Leu-Agm] | 340 | 16 | – | – | Cath K Ki (Cath K): inactive; Cath B Ki (Cath B): inactive
2 | CC(C)CC(NC(=O)C(NC(=O)/C=C/S(=O)(=O)Cc1ccccc1)C(C)C)C(=O)NCCCCNC(=N)N (stereo not drawn) [A-25, Bzsa-Val-Leu-Agm] | – | 1 | 42.2 | 8.1 | Papain Ki (Papain): Inactive
3 | CC(C)CC(NC(=O)C(CCCNC(=N)N)NC(=O)OCc1ccccc1)C(=O)NC(CNC(=O)/C=C/c1ccccc1)C(C)C (stereo not drawn) [A-20, Z-Arg-Leu-NH—CH(iPr)—CH2—NH←Cin] | – | 0 | – | – | Papain Ki (Papain): Inactive
4 | CC(C)CC(NC(=O)C(NC(=O)CCl)C(C)C)C(=O)NCCCCNC(=N)N (stereo not drawn) [A-11, ClAc—Val-Leu-Agm] (ClAc-Val-Leu-Agmatine; configuration not given here) | 93 | 1 | 14 | 360 | –
5 | CC(C)CC(NC(=O)C(NC(=O)C1OC1C(=O)c1ccccc1)C(C)C)C(=O)NCCCCNC(=N)N (single isomer, unassigned) [A-50] | 68 | 2 | 63 | 55 | –
6 | CC(C)CC(NC(=O)/C=C/c1cccnc1)C(=O)NC(CC(C)C)C(=O)NCCCCNC(=N)N (stereo not drawn) [A-127, 3 Pac-DLeu-Leu-Agm] | – | – | – | – | Osteoclast formation (100% = M-CSF + RANKL) ([1]; BMM #141 and #142): 16%
7 | CC(C)CC(NC(=O)C(CCCNC(=N)N)NC(=O)OCc1ccccc1)C(=O)NC(C(=O)NC(Cc1ccccc1)C(N)=O)C(C)C (stereo not drawn) [A-59, Ppa-Arg-Leu-Val-Phe-NH2] (Cbz-RLVF-NH2; configuration not given here) | – | 0 | – | – | –
8 | CC(C)CC(NC(=O)CCCCNC(=N)N)C(=O)NC(CNC(=O)/C=C/S(=O)(=O)Cc1ccccc1)C(C)C (stereo not drawn) [A-54] | 1000 | 1 | 14 | 228 | –
9 | CCC(C)C(NC(=O)NNC(=O)C(CCCNC(=N)N)NC(=O)C(CC(C)C)NC(=O)C(CCCNC(=N)N)NC(=O)OCc1ccccc1)C(=O)NC(C(=O)OC)C(C)C (stereo not drawn) [Z-RLR, Z-Arg-Leu-Arg-Agly-Ile-Val-OMe] (Cbz-RLR[azaGly]IV-OMe; configuration not given here) | 9 | 0 | 1 | – | –
10 | CC(C)CC(NC(=O)Cc1cc(=O)oc2cc(O)ccc12)C(=O)NC(CC(C)C)C(=O)NCCCCNC(=N)N [A-128, N-amidino-4-(7-hydroxy-4-coumarinacetyl-D-leucyl-L-leucylamino)butylamine] | – | – | – | – | Osteoclast formation (100% = M-CSF + RANKL) ([1]; BMM #141 and #142): 4%
11 | CCC(C)C(NC(=O)/C=C/S(=O)(=O)Cc1ccccc1)C(=O)N1CCCC1C(=O)O (stereo not drawn) [M-1, Bzsa-Ile-Pro-OH] | 23 | 14 | 160 | 3 | –
12 | COC(=O)C1OC1C(=O)NC(C(=O)NC(CC(C)C)C(=O)NCCCCNC(=N)N)C(C)C (stereo not drawn) [A-42, MeO-Eps-Val-Leu-Agm] | 161 | 0 | – | 14 | Cath K Ki (Cath K): inactive
13 | CC(C)CC(NC(=O)C(CCCNC(=N)N)NC(=O)OCc1ccccc1)C(=O)NC(CNC(=O)/C=C/c1ccncc1)C(C)C (stereo not drawn) [A-49, Z-Arg-Leu-NH—CH(iPr)—CH2—NH←4-Pac] | – | 0.2 | – | – | –
14 | CC(C)CC(NC(=O)C(NC(=O)CBr)C(C)C)C(=O)NCCCCNC(=N)N (stereo not drawn) [A-12, BrAc—Val-Leu-Agm] (BrAc-Val-Leu-Agmatine; configuration not given here) | 94 | 2 | 13 | 1000 | –
15 | CC(C)CC(NC(=O)C(NC(=O)/C=C/C(=O)c1ccccc1)C(C)C)C(=O)NCCCCNC(=N)N (stereo not drawn) [A-33, Bzac-Val-Leu-Agm] | 46 | 0 | 24 | 2 | –
16 | CC(C)CC(NC(=O)CCCCNC(=N)N)C(=O)NC(CNC(=O)C(Cc1ccccc1)NC(=O)Cc1cc(=O)oc2cc(O)ccc12)C(C)C [A-107, (2S)-2-[N-(5-guanidinepentanoyl)-L-leucylamino]-1-[N-(7-hydroxy-4-coumarinylacetyl-L-phenylalanylamino)-3-methylbutane] | – | – | – | – | Osteoclast formation (100% = M-CSF + RANKL) ([1]; BMM #141 and #142): 0%
17 | CC(C)CC(NC(=O)C(NC(=O)C1OC1C(=O)c1ccccc1)C(C)C)C(=O)NCCCCNC(=N)N (single isomer, unassigned) [A-47] | 16 | 0 | 99 | 0.3 | –
18 | C=C1/C(=C\C=C2/CCC[C@]3(C)[C@@H]([C@H](C)CCCC(C)(C)O)CC[C@@H]23)C[C@@H](O)C[C@@H]1O [D3, 1.25(OH)2-vitamin D3, reference compound] | – | – | – | – | Osteoclast formation in the presence of the substance (spleen cells): No osteoclasts were formed; Osteoclast formation in the presence of the substance ([1]; BMM cultures): Osteoclasts were not formed
19 | B1 | – | – | – | – | Osteoclast formation in the presence of the substance (spleen cells): No osteoclasts were formed; Osteoclast formation in the presence of the substance ([1]; BMM cultures): Osteoclasts were not formed
20 | B2 | – | – | – | – | Effect on stimulation of osteoclast formation caused by M-CSF and RANKL (spleen cells; M-CSF and RANKL): abolished; Effect on osteoclast formation caused by M-CSF and RANKL ([1]; BMM cultures, M-CSF and RANKL): abolished
21 | B3 | – | – | – | – | Osteoclast formation (100% = M-CSF + RANKL) ([1]; BMM #141 and #142): 0%
